Holding throughout (test): NCI-60 cell line screen, 48 h
Assay [1] has as its system A549 NSCLC.
For assay [2], the system named is BT-549 breast.
Assay [3] concerns CAKI-1 renal.
Assay [4] relates to HL-60(TB) leukemia.
In assay [5] the test system is K-562 leukemia.
Assay [6] deals with NCI-H460 lung.
Assay [7] concerns SK-MEL-28 melanoma.
Assay [8] deals with SNB-19 CNS.
The test system of assay [9] is SW-620 colon.
For assay [10], the system named is TK-10 renal.

Values joined by “and” are separate entries in the source; they are usually repeats but may differ in a detail not shown here. Equal entries are not always repeated.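 Protocol summary: plate cells (96-well), add compound at 5 concentrations, incubate 48 h, interpolate endpoints linearly. GI50: concentration for 50% inhibition of growth. The concentration for full growth arrest is given as TGI.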

As to `CC(C)c1[nH]nc2c1N=C(c1ccccc1Cl)c1cc([N+](=O)[O-])ccc1N2`, the GI50 in [1] is 5.18 µM; in assay [2], 6.66 µM; in assay [3], 2.53 µM; in [4], 4.99 µM; in assay [5] it was 1.98 µM; in assay [6], 5.77 µM. Also, the GI50 in [7] was 6.26 µM; in [8], 11.8 µM; in assay [9], 2.2 µM; in assay [10] it was 7.31 µM. For the same compound, the TGI in [1] was > 22.3 µM; in [2], > 22.1 µM; in [3], > 13.7 µM; in assay [4] it was 12.2 µM; in assay [5] it was > 25 µM; in assay [6], 15.9 µM. Besides, the TGI is > 25 µM in [7], > 25 µM in [8], > 25 µM in [9] and > 23.1 µM in assay [10].
With `COc1ccc(C(CC(=O)c2ccc3c(c2)OCO3)c2c(O)c3ccccc3oc2=O)cc1OC` (centres undefined), the TGI in assay [1], in [2], in [3], in assay [4], in assay [5] and in [6] was > 100 µM throughout. The TGI in assay [7], in [8], in [9] and in assay [10] was > 100 µM each time.
`C=CC(=O)N1CN(C(=O)C=C)CN(C(=O)C=C)C1`: the GI50 is 21.2 µM in assay [1]; 6.68 µM in [2]; 1.63 µM in assay [3]; 3.37 µM in assay [4]; 3.01 µM in assay [5]; 21.7 µM in [6]. Also, the GI50 in assay [7] is 4.02 µM; in [8], 33.1 µM; in assay [9], 2.16 µM; in assay [10], 2.36 µM. In addition, the TGI in assay [1] came out at 81.7 µM; in [2], 20.7 µM; in assay [3] it was 3.7 µM; in [4] it was 10.3 µM; in assay [5] it was 9.83 µM; in assay [6], 50.4 µM. Moreover, the TGI in assay [7] is 16.2 µM; in [8] it was > 100 µM; in assay [9], 5.16 µM; in assay [10], 5.7 µM.
`COc1ccc(-c2nc(-c3cc(OC)cc(OC)c3)[nH]c2-c2ccc(OC)cc2)cc1`: the GI50 in assay [1] is 5.31 µM; in [2] it was 8.56 µM; in assay [3], 6.24 µM; in [4] it was 3.74 µM; in assay [5], 5.02 µM; in assay [6] it was 5.98 µM. In addition, the GI50 is > 100 µM in [7], > 100 µM in [8], 54.1 µM in [9] and 53.1 µM in [10]. Also, the TGI in [1], in assay [2], in [3], in [4], in [5] and in assay [6] was > 100 µM each time. The TGI in [7], in assay [8], in assay [9] and in assay [10] was > 100 µM in each case.
Turning to `Cn1c(=O)c2c(nc(C(=N)SCC(=O)O)n2C)n(C)c1=O`, the TGI in assay [1] was > 100 µM; in [2], > 100 µM; in [3], 99 µM; in [4], 52.8 µM; in assay [5] it was > 100 µM; in assay [6] it was > 100 µM. For the same compound, the TGI in assay [7], in assay [8], in assay [9] and in assay [10] was > 100 µM in each case.
As for `O=C1Nc2ccccc2/C1=C1\CCc2cc(O)ccc21`, the GI50 in assay [1] is 9.45 µM; in assay [2], 8.47 µM; in assay [3], 7.12 µM; in assay [4], 6.65 µM; in [5], 9.09 µM; in assay [6], 8.7 µM. In addition, the GI50 in assay [7] was 15.3 µM; in assay [8], 13.2 µM; in assay [9], 8.05 µM; in assay [10] it was 10.7 µM. Besides, the TGI in [1] is > 25 µM; in assay [2], > 24.2 µM; in assay [3], > 25 µM; in assay [4], > 21.5 µM; in assay [5], > 25 µM; in assay [6] it was > 25 µM. Moreover, the TGI in assay [7], in [8], in assay [9] and in assay [10] was > 25 µM in each case.
Turning to `COc1ccc(-c2ccc3c(N4CCOC[C@@H]4C)nc(N4CCOC[C@@H]4C)nc3n2)cc1CO`, the GI50 is 0.0052 µM and 0.0253 µM in assay [1]; 0.00348 µM and 0.0162 µM in assay [2]; 0.00473 µM and 0.0302 µM in assay [3]; 0.012 µM and 0.0551 µM in assay [5]; 0.00417 µM and 0.0101 µM in assay [6]; 0.00476 µM and 0.0135 µM in [7]. Besides, the GI50 is 0.00693 µM and 0.0491 µM in assay [8]; 0.0078 µM and 0.0537 µM in assay [9]; 0.00484 µM and 0.0147 µM in [10]. For the same compound, the TGI was 1.78 µM and 0.57 µM in [1]; 5.15 µM in [3]; > 3.76 µM and 20.7 µM in assay [4]; > 100 µM in assay [5]; > 100 µM in assay [6]; 0.181 µM in assay [7]. Besides, the TGI in assay [8] was > 100 µM; in assay [9], > 100 µM; in [10] it was 0.237 µM and 0.212 µM.
On to `c1ccc2c(c1)[nH]c1c2cc[n+]2cc3c(cc12)CCCC3`, for which the GI50 in assay [1] is 4.88 µM; in [2] it was 8.96 µM; in assay [4], 1.27 µM; in [5] it was 2.76 µM; in assay [6] it was 1.66 µM; in assay [9], 2.35 µM. The TGI in assay [1] was 24.6 µM and 30.8 µM; in assay [2] it was 25.5 µM and 8.29 µM; in assay [3], 36.2 µM and 32 µM; in assay [4] it was 5.39 µM; in assay [5], 12.5 µM and 10.8 µM; in assay [6], 4.54 µM and 3.22 µM. For the same compound, the TGI in assay [7] was 5.26 µM and 4.19 µM; in assay [8] it was 12 µM and 9.35 µM; in [9], 11.6 µM and 16.2 µM; in [10] it was 25.6 µM.
In the case of `COc1ccc(-c2nccn2-c2ccc(OC)cc2)cc1`, the GI50 in assay [1] is 25.1 µM; in assay [2], 28.7 µM; in [3] it was 22.9 µM; in [4], 14.2 µM; in assay [5], 6.43 µM; in [6], 17.9 µM. The GI50 in assay [7] is 19.1 µM; in assay [8], 41.8 µM; in assay [9], 25 µM; in assay [10], 23 µM. Further, the TGI is > 80.5 µM in assay [1]; > 94.5 µM in assay [2]; > 69.5 µM in assay [3]; 34.2 µM in [4]; 61.4 µM in assay [5]; 60.7 µM in [6]. Besides, the TGI in assay [7] is 60.6 µM; in [8], > 100 µM; in assay [9] it was > 100 µM; in assay [10] it was > 75.9 µM.
Take `CO[C@H]1Nc2c(ccc(C)c2O)C(=O)N2C=C(/C=C/C(N)=O)C[C@@H]12`: the TGI was > 72.3 µM in [1]; < 0.0479 µM in assay [2]; 0.211 µM in assay [3]; 0.456 µM in [4]; 27.8 µM in assay [5]; 31.1 µM in assay [6]. Besides, the TGI in assay [7] was 0.0829 µM; in [8] it was > 58.2 µM; in assay [9], 17.7 µM; in assay [10], 7.95 µM.
As for `Cc1cc(Nc2nc(-c3cn(-c4ccc(Cl)cc4)nn3)nc3ccccc23)n[nH]1`, the GI50 in [1] was 11.4 µM; in assay [2], 15 µM; in assay [3], 2.31 µM; in assay [4], 18.3 µM; in assay [5] it was 25.8 µM; in assay [6] it was 5.65 µM. Besides, the GI50 is 21.9 µM in assay [7], > 50 µM in assay [8], 12.5 µM in [9] and 6.69 µM in assay [10]. Besides, the TGI was > 50 µM in assay [1]; > 50 µM in [2]; 14.7 µM in assay [3]; > 50 µM in assay [4]; > 50 µM in assay [5]; 36.3 µM in [6]. Also, the TGI is > 50 µM in assay [7], > 50 µM in assay [8], > 50 µM in assay [9] and 39.3 µM in [10].
Consider `COc1ccc(/C(C)=C(\c2ccc(OCCN3CCCCCC3)cc2)c2ccc(OC(=O)C3CCCCC3)cc2)cc1`, for which the GI50 is 1.12 µM in [1]; 1.53 µM in assay [2]; 0.705 µM in [3]; 0.707 µM in assay [4]; 0.356 µM in assay [5]; 0.592 µM in assay [6]. In addition, the GI50 in assay [7] is 1.25 µM; in [8], 2.45 µM; in [9], 0.948 µM; in assay [10] it was 1.84 µM. The TGI was 4.04 µM in [1]; 3.36 µM in assay [2]; 2.61 µM in assay [3]; 2.85 µM in assay [4]; 6.14 µM in assay [5]; 2.1 µM in assay [6]. Further, the TGI in [7] amounted to 3.14 µM; in [8], 10.5 µM; in assay [9], 3.15 µM; in assay [10], 4.25 µM.
